Measured values: patent US20090022803A1, “Oral Formulations For Delivery of Catecholic Butanes Including Ndga Compounds” (priority 2005, published 2009)

Assay: Stability of M4N formulations at room temperature (time to crystallized precipitation)
Type: physicochemical
Protocol: A 10 mL solution of M4N at a concentration of about 10 mg/mL in 40% BP-β-CD was made as follows. About 10 mL of the 40% HP-β-CD solution were added to a glass beaker containing a stir bar. The beaker was placed on a magnetic plate and the stir bar was set to stir at medium speed. About […] of M4N were slowly added to the 40% HP-β-CD in the center of the beaker with the aid of a spatula. The M4N/40% HP-β-CD mixture was stirred for 2 hr or until all M4N was uniformly suspended without any clumps being present. The M4N/40% HP-β-CD mixture was optionally heated at 80° C. for about 30 min. (or longer if a larger volume of solution was desired, for example, 1 hr at 80° C. for 100 mL of the M4N/HP-β-CD mixture), or longer as needed to ensure complete dissolution of M4N. […] The final M4N/40% HP-β-CD solution was stored at room temperature and was kept protected from light. This process may be scaled up or down to obtain the requisite volume or concentration of M4N. Formulations containing M4N in other cyclodextrin solutions may be similarly made, such as, for example, by substituting HP-β-CD in the process described above with other cyclodextrins.
A 100 mL solution of M4N at a concentration of about 25 mg/mL in PEG 300 was made as follows. About 100 mL of PEG 300 were added to a glass beaker containing a stir bar. The beaker was placed on a magnetic plate and the stir bar was set to stir at medium speed. About 2.5 g of M4N were slowly added to the PEG 300 in the center of the beaker with the aid of a spatula to prevent M4N from sticking to the beaker wall. The M4N/PEG 300 mixture was stirred for 24 hr or until all M4N had dissolved or was uniformly suspended without any clumps being present. The M4N/PEG 300 mixture was optionally heated at about 60° C. for about 30 min. (or longer if a larger volume of solution was desired, for example, 1 hr at 60° C. for 500 mL of the M4N/PEG 300 mixture), or longer as needed to ensure complete dissolution of M4N. […] If crystals formed, the M4N/PEG 300 solution could be heated again at 60° C. for about 1 hr, with stirring, on a hot magnetic plate until all M4N was dissolved back in solution. The final M4N/PEG 300 solution was stored at room temperature and was kept protected from light. This process may be scaled up or down to obtain the requisite volume or concentration of M4N. Formulations containing M4N in other PEGs may be similarly made, such as, for example, by substituting PEG 300 in the process described above with PEG 400 or PEG 400 monolaurate.
Formulations containing M4N in other water-insoluble lipids combined with non-ionic, ionic or amphipathic surfactants or water-soluble organic solvents may be similarly made, such as, for example, by substituting sesame oil in the process described above with corn oil, olive oil, soybean oil, peppermint oil, or mineral oil and substituting Tween® 20 with Tween® 80, TPGS, lecithin, PEG 300, PEG 400, PEG 400 monolaurate, glycerol, PVP, PG, or other solubilizing agents, and combinations thereof. Stability in reference to the clear liquid solutions herein refers to the time it takes to form crystallized precipitation in solution. A stable solution is one that is clear and free of particulates for an extended period of time.

With `COc1ccc(C[C@@H](C)[C@@H](C)Cc2ccc(OC)c(OC)c2)cc1OC` [Formulation M4N, meso-1,4-bis(3,4-dimethoxyphenyl)-2,3-dimethylbutane] the “Stability at Room Temperature” value (0.3% (v/v) Piperin, 49.8% (v/v) PEG 400, 49.8% (v/v) Tween ® 20, M4N 60 mg/mL, suspension) was >9 days, the “Stability at Room Temperature” value (0.4% (v/v) Cinnamadehyde, 49.8%(v/v) PEG 400, 49.8% (v/v) Tween ® 20, M4N 60 mg/mL) was >4 days and the “Stability at Room Temperature” value (0.4% (v/v) Cinnamaldehyde, 4.6% (v/v) Peppermint Oil, 47.5% (v/v) PEG 400, 47.5% (v/v) Tween ® 20, M4N 60 mg/mL) was >2 days. For the same molecule, the “Stability at Room Temperature” value (0.4% (v/v) Eugenol, 49.8% (v/v) Tween ® 20, 49.8% (v/v) PEG 400, M4N 60 mg/mL) was >2 days, the “Stability at Room Temperature” value (3% (w/v)Glycerol Monostearate, 48.5% (v/v) PEG 400, 48.5% (v/v) Tween ® 20, M4N 60 mg/mL) was >1 days and the “Stability at Room Temperature” value (5% (v/v) Peppermint Oil, 47.5% (v/v) Tween ® 20, 47.5% (v/v) PEG 400, M4N 60 mg/mL) was >2 days. For the same molecule, the “Stability at Room Temperature” value (10% TPGS (w/v), 50% PEG 400 (v/v), M4N 50 mg/ml, suspension) was >7 days, the “Stability at Room Temperature” value (25%(w/v) Lecithin, 37.5% (v/v) PEG 400, 37.5% (v/v) Tween ® 20, M4N 60 mg/mL) was >14 days and the “Stability at Room Temperature” value (47.5% (v/v) Tween ® 20, 47.5% (v/v) PEG 400, 2.5% (w/v) Beeswax 2.5% (w/v) PEG 3350, M4N 60 mg/mL) was >4 days. The “Stability at Room Temperature” value (47.5% Tween ® 20 (v/v), 47.5% PEG 400 (v/v), 5% Beeswax (w/v), M4N 200 mg/g, waxy solid) was >3 days, the “Stability at Room Temperature” value (50% Tween ® 20 (v/v), 50% PEG 400 (v/v), M4N 30 mg/ml) was >3 days and the “Stability at Room Temperature” value (50% Tween ® 20 (v/v), 50% PEG 400 (v/v), M4N 40 mg/ml) was >3 days. For the same molecule, the “Stability at Room Temperature” value (50% Tween ® 20 (v/v), 50% PEG 400 (v/v), M4N 50 mg/ml) was >3 days, the “Stability at Room Temperature” value (50% Tween ® 20 (v/v), 50% PEG 400 (v/v), M4N 60 mg/ml) was >3 days and the “Stability at Room Temperature” value (50.3% (v/v) Tween ® 20, 44.6% (v/v) PEG 400, 2.4% (w/v) Beeswax, 2.4% (w/v) PEG 3350, 0.3% (w/v) Naringenin, M4N 60 mg/mL) was >4 days. The “Stability at Room Temperature” value (Glycerol Monoleate 100% (w/v), M4N 0.10 mg/ml, remains in suspension, can be mixed back together) was “for up to 10 days”, the “Stability at Room Temperature” value (Glycerol Monoleate 100% (w/v), M4N 0.25 mg/ml, remains in suspension, can be mixed back together) was “for up to 10 days” and the “Stability at Room Temperature” value (Glycerol Monoleate 100% (w/v), M4N 1.00 mg/ml, remains in suspension, can be mixed back together) was “for up to 10 days”. For the same molecule, the “Stability at Room Temperature” value (Glycerol Monoleate 100% (w/v), M4N 5.0 mg/ml, remains in suspension, can be mixed back together) was “for up to 10 days”, the “Stability at Room Temperature” value (Glycerol Monoleate 100% (w/v), M4N 10.0 mg/ml, remains in suspension, can be mixed back together) was “for up to 10 days” and the “Stability at Room Temperature” value (Glycerol Monoleate 100% (w/v), M4N 12.0 mg/ml, remains in suspension, can be mixed back together) was “for up to 10 days”. The “Stability at Room Temperature” value (Glycerol Monoleate 100% (w/v), M4N 15.0 mg/ml, remains in suspension, can be mixed back together) was “for up to 10 days”, the “Stability at Room Temperature” value (Glycerol Monoleate 100% (w/v), M4N 17.5 mg/ml, remains in suspension, can be mixed back together) was “for up to 10 days” and the “Stability at Room Temperature” value (Glycerol Monoleate 100% (w/v), M4N 20.0 mg/ml, remains in suspension, can be mixed back together) was “for up to 10 days”. The “Stability at Room Temperature” value (Glycerol Monoleate 100% (w/v), M4N 25.0 mg/ml, remains in suspension, can be mixed back together) was “for up to 10 days”, the “Stability at Room Temperature” value (Glycerol Monoleate 100% (w/v), M4N 30.0 mg/ml, remains in suspension, can be mixed back together) was “for up to 10 days” and the “Stability at Room Temperature” value (Glycerol Monoleate 100% (w/v), M4N 40.0 mg/ml, remains in suspension, can be mixed back together) was “for up to 10 days”. The “Stability at Room Temperature” value (Glycerol Monoleate 100% (w/v), M4N 50.0 mg/ml, remains in suspension, can be mixed back together) was “for up to 10 days”, the “Stability at Room Temperature” value (Glycerol Monoleate 100% (w/v), M4N 60.0 mg/ml, remains in suspension, can be mixed back together) was “for up to 10 days” and the “Stability at Room Temperature” value (Glycerol Monoleate 100% (w/v), M4N 65.0 mg/ml, remains in suspension, can be mixed back together) was “for up to 10 days”. For the same molecule, the “Stability at Room Temperature” value (Glycerol Monoleate 100% (w/v), M4N 70.0 mg/ml, remains in suspension, can be mixed back together) was “for up to 10 days”, the “Stability at Room Temperature” value (Glycerol Monoleate 100% (w/v), M4N 80.0 mg/ml, remains in suspension, can be mixed back together) was “for up to 10 days” and the “Stability at Room Temperature” value (Glycerol Monoleate 100% (w/v), M4N 100.0 mg/ml, remains in suspension, can be mixed back together) was “for up to 10 days”. For the same molecule, the “Stability at Room Temperature” value (Glycerol Monoleate 100% (w/v), M4N 200.0 mg/ml, remains in suspension, can be mixed back together) was “for up to 10 days”, the “Stability at Room Temperature” value (Glycerol Monoleate 100% (w/v), M4N 300.0 mg/ml, remains in suspension, can be mixed back together) was “for up to 10 days” and the “Stability at Room Temperature” value (Labrafil ® 100%, M4N 60 mg/mL) was >4 days. For the same molecule, the “Stability at Room Temperature” value (Labrasol ® 100%, M4N 50 mg/mL) was >4 days, the “Stability at Room Temperature” value (Labrasol ® 100%, M4N 60 mg/mL) was >4 days and the “Stability at Room Temperature” value (Labrasol ® 100%, M4N 70 mg/mL) was >4 days. The “Stability at Room Temperature” value (Labrasol ® 100%, M4N 80 mg/mL) was >4 days, the “Stability at Room Temperature” value (M4N 1 mg/mL in 20% HP-β-CD) was >7 days and the “Stability at Room Temperature” value (M4N 1 mg/mL in 30% HP-β-CD) was >7 days. For the same molecule, the “Stability at Room Temperature” value (M4N 1 mg/mL in 50% HP-β-CD) was >7 days, the “Stability at Room Temperature” value (M4N 1 mg/mL in 50% HP-β-CD, 1.25% PVP (w/v)) was <3 days and the “Stability Time at Room Temperature” value (M4N 1 mg/mL in Peppermint Oil) was >3 days. The “stable at room temperature” value (M4N 1 mg/mL in Tween® 20) was “more than 7 days” and the “stable at room temperature” value (M4N 1 mg/mL in Tween® 80) was “more than 3 days”.
